# According to ChEMBL document CHEMBL6092194, “Development of membrane-targeting chalcone derivatives as antibacterial agents against multidrug-resistant bacteria” (Eur J Med Chem, 2024):
# Calls of active or inactive are those of the source. No cut-off for these calls is given here.
# Assays:
# Cell membrane [1] = experiment: Disruption of cell membrane in Escherichia coli ATCC25922 assessed as appearance of blue fluorescence by DAPI staining based fluorescence microscopic analysis; format: subcellular
# Staphylococcus aureus [2] = experiment: Bactericidal activity against Staphylococcus aureus ATCC43300 assessed as elimination of bacteria at 8 microg/ml measured within 4 hrs by time-kill kinetics assay relative to control; format: functional; conditions: dose 8 µg/ml
# Cell membrane [3] = experiment: Disruption of cell membrane in Staphylococcus aureus ATCC43300 assessed as fold increase in DNA leakage at 8 microg/ml relative to control; format: subcellular; conditions: dose 8.0 µg/ml
# Escherichia coli [4] = experiment: Antibiofilm activity against Escherichia coli ATCC25922 assessed as inhibition of biofilm formation at 1 microg/ml relative to control; format: functional
# Staphylococcus aureus [5] = experiment: Antibiofilm activity against Staphylococcus aureus ATCC43300 assessed as inhibition of biofilm formation at 1 microg/ml relative to control; format: functional
# Staphylococcus aureus [6] = experiment: Bactericidal activity against Staphylococcus aureus ATCC43300 measured upto 24 hrs by time-kill kinetics assay; format: functional, organism-based; conditions: dose 1-8 µg/ml
# [7] = Ratio of MBC for Staphylococcus aureus ATCC43300 measured after 6 hrs in presence of 50% plasma to MBC for Staphylococcus aureus ATCC43300 in Mueller Hinton Broth; format: functional
# Acinetobacter baumannii = experiment: Antibacterial activity against Acinetobacter baumannii ATCC19606 by broth microdilution assay; format: functional
# Staphylococcus aureus [8] = experiment: Antibacterial activity against Staphylococcus aureus ATCC43300 infected in sepsis mouse model assessed as log reduction in bacterial load in spleen at 10 mg/kg pre-infected with bacteria for 1 hrs followed by compound administration at 12 hrs interval for 2 days relative to control; format: functional; conditions: time 2 day
# Escherichia coli [9] = experiment: (§1) Antibacterial activity against Escherichia coli ATCC25922 infected in sepsis mouse model assessed as reduction in liver inflammation at 5 to 10 mg/kg pre-infected with bacteria for 1 hrs followed by compound administration at 12 hrs interval for 2 days by H and E staining based analysis; format: functional, organism-based; conditions: dose 5-10 mg/kg, time 2.0 day
# Escherichia coli [10] = experiment: Induction of morphological changes in Escherichia coli ATCC25922 assessed as collapse of cell membrane by scanning electron microscopic analysis; format: functional, organism-based
# Staphylococcus aureus [11] = experiment: Antibacterial activity against Staphylococcus aureus ATCC43300 infected in sepsis mouse model assessed as reduction in kidney inflammation at 5 to 10 mg/kg pre-infected with bacteria for 1 hrs followed by compound administration at 12 hrs interval for 2 days by H and E staining based analysis; format: functional, organism-based; conditions: dose 5-10 mg/kg, time 2.0 day
# Cell membrane [12] = experiment: Induction of outer membrane permeabilization in Escherichia coli ATCC25922 assessed as fold increase in fluorescence intensity at 8 microg/ml incubated for 20 mins by NPN uptake assay; format: subcellular; conditions: dose 8.0 µg/ml
# Cell membrane [13] = experiment: Induction of cytoplasmic membrane depolarization in Escherichia coli ATCC25922 assessed as increase in fluorescence intensity measured after 24 mins by DiSC3(5) dye-based fluorescence assay; conditions: dose 0.5-8 µg/ml
# Staphylococcus aureus [14] = experiment: Antibacterial activity against Staphylococcus aureus ATCC43300 infected in sepsis mouse model assessed as log reduction in bacterial load in blood at 5 mg/kg pre-infected with bacteria for 1 hrs followed by compound administration at 12 hrs interval for 2 days relative to control; format: functional; conditions: time 2 day
# Escherichia coli [15] = experiment: Bactericidal activity against Escherichia coli ATCC25922 in Mueller Hinton Broth; format: functional
# Escherichia coli [16] = experiment: as §1, with “inflammatory cell infiltration in kidney” for “liver inflammation”, “at” for “at 5 to”; format: functional, organism-based; conditions: time 2.0 day
# Escherichia coli [17] = experiment: Antibacterial activity against Escherichia coli ATCC25922 infected in sepsis mouse model assessed as log reduction in bacterial load in kidney at 5 mg/kg pre-infected with bacteria for 1 hrs followed by compound administration at 12 hrs interval for 2 days relative to control; format: functional; conditions: time 2 day
# Staphylococcus aureus [18] = experiment: Bactericidal activity against Staphylococcus aureus ATCC43300 in presence of 50% plasma; format: functional
# Escherichia coli [19] = experiment: Antibacterial activity against Escherichia coli ATCC25922 infected in sepsis mouse model assessed as reduction in spleen inflammation at 5 to 10 mg/kg pre-infected with bacteria for 1 hrs followed by compound administration at 12 hrs interval for 2 days by H and E staining based analysis; format: functional, organism-based; conditions: dose 5-10 mg/kg, time 2.0 day
# Cell membrane [20] = experiment: Induction of inner membrane permeabilization in Staphylococcus aureus ATCC43300 assessed as fold increase in fluorescence intensity at 8 microg/ml incubated for 20 mins by PI uptake assay relative to negative control; format: subcellular; conditions: dose 8.0 µg/ml
# Cell membrane [21] = experiment: Disruption of cell membrane in Escherichia coli ATCC25922 assessed as increase in intracellular ROS level by measuring fold increase in fluorescence intensity at 8 microg/ml by DCFH-DA staining based fluorescence analysis relative to blank control group; conditions: dose 8.0 µg/ml
# Cell membrane [22] = experiment: Disruption of cell membrane in Escherichia coli ATCC25922 assessed as increase in intracellular ROS level by DCFH-DA staining based fluorescence analysis; conditions: dose 1-8 µg/ml
# Staphylococcus aureus [23] = experiment: Antibacterial activity against Staphylococcus aureus ATCC43300 infected in sepsis mouse model assessed as log reduction in bacterial load in blood at 10 mg/kg pre-infected with bacteria for 1 hrs followed by compound administration at 12 hrs interval for 2 days relative to control; format: functional; conditions: time 2 day
# Staphylococcus aureus [24] = experiment: Antibacterial activity against penicillin-resistant Staphylococcus aureus ATCC43300 by broth microdilution assay; format: functional
# Escherichia coli [25] = experiment: Antibacterial activity against Escherichia coli ATCC25922 infected in sepsis mouse model assessed as log reduction in bacterial load in blood at 5 mg/kg pre-infected with bacteria for 1 hrs followed by compound administration at 12 hrs interval for 2 days relative to control; format: functional; conditions: time 2 day
# Escherichia coli [26] = experiment: Bactericidal activity against Escherichia coli ATCC25922 measured upto 24 hrs by time-kill kinetics assay; format: functional, organism-based; conditions: dose 1-8 µg/ml
# [27] = Ratio of MBC for Escherichia coli ATCC25922 measured after 6 hrs in presence of 50% plasma to MBC for Escherichia coli ATCC25922 in Mueller Hinton Broth; format: functional
# Escherichia coli [28] = experiment: Disruption of preformed biofilm in Escherichia coli ATCC25922 assessed as eradication of biofilm at 32 microg/ml relative to control; format: functional; conditions: dose 32 µg/ml
# Staphylococcus aureus [29] = experiment: Antibacterial activity against Staphylococcus aureus ATCC43300 infected in sepsis mouse model assessed as reduction in inflammatory cell infiltration in kidney at 10 mg/kg pre-infected with bacteria for 1 hrs followed by compound administration at 12 hrs interval for 2 days by H and E staining based analysis; format: functional, organism-based; conditions: time 2.0 day
# Staphylococcus aureus [30] = experiment: Bactericidal activity against Staphylococcus aureus ATCC43300 assessed as elimination of bacteria at 8 microg/ml measured within 6 hrs by time-kill kinetics assay relative to control; format: functional; conditions: dose 8 µg/ml
# Staphylococcus aureus [31] = experiment: Induction of morphological changes in Staphylococcus aureus ATCC43300 assessed as collapse of cell membrane by scanning electron microscopic analysis; format: functional, organism-based
# Escherichia coli [32] = experiment: Antibiofilm activity against Escherichia coli ATCC25922 assessed as inhibition of biofilm formation at 16 microg/ml relative to control; format: functional
# Cell membrane [33] = experiment: Disruption of cell membrane in Staphylococcus aureus ATCC43300 assessed as appearance of red fluorescence by PI staining based fluorescence microscopic analysis
# Escherichia coli [34] = experiment: Ratio of MBC for Escherichia coli ATCC25922 in presence of 50% blood to MBC for Escherichia coli ATCC25922 in Mueller Hinton Broth; format: functional
# [35] = Cytotoxicity against human L02 cells assessed as cell survival at 16 microg/ml by CCK8 assay relative to control; format: toxicity, cell-based; conditions: at 16 µg/mL, read-out: Survival
# [36] = Hemolytic activity in red blood cells (unknown origin); format: toxicity, cell-based, Erythrocyte
smiles,measurement,setting,value
CCCCCCOc1cc[n+](CCCOc2ccc(/C=C/C(=O)c3ccc(OCCC[n+]4ccc(OCCCCCC)cc4)cc3)cc2)cc1.[Br-].[Br-],Activity,Cell membrane [1],Active
same,Activity,Staphylococcus aureus [2],>=99.9%
same,fold change (FC),Cell membrane [3],12
same,inhibition at 1 µg/mL,Escherichia coli [4],12.3%
same,inhibition at 1 µg/mL,Staphylococcus aureus [5],6.91%
same,Activity,Staphylococcus aureus [6],Dose-dependent-effect
same,Ratio,[7],<4
same,MIC,Acinetobacter baumannii,16 µg/mL
same,log(activity),Staphylococcus aureus [8],1.52
same,Activity,Escherichia coli [9],Active
same,Activity,Escherichia coli [10],Active
same,Activity,Staphylococcus aureus [11],Active
same,fold change (FC),Cell membrane [12],2.5
same,Activity,Cell membrane [13],Dose-dependent-effect
same,log(activity),Staphylococcus aureus [14],0.8
same,MBC,Escherichia coli [15],8 µg/mL
same,Activity,Escherichia coli [16],inactive
same,log(activity),Escherichia coli [17],1.65
same,MBC,Staphylococcus aureus [18],4 µg/mL
same,Activity,Escherichia coli [19],Active
same,fold change (FC),Cell membrane [20],1.5
same,fold change (FC),Cell membrane [21],1.5
same,Activity,Cell membrane [22],Dose-dependent-effect
same,log(activity),Staphylococcus aureus [23],1.61
same,MIC,Staphylococcus aureus [24],0.5 µg/mL
same,log(activity),Escherichia coli [25],0.71
same,Activity,Escherichia coli [26],Dose-dependent-effect
same,Ratio,[27],<4
same,Activity,Escherichia coli [28],>49.08%
same,Activity,Staphylococcus aureus [29],inactive
same,Activity,Staphylococcus aureus [30],100%
same,Activity,Staphylococcus aureus [31],Active
same,inhibition at 16 µg/mL,Escherichia coli [32],50.9%
same,Activity,Cell membrane [33],Active
same,Ratio,Escherichia coli [34],< 2
same,viability at 16 microg/ml,[35],> 83%
same,HC50,[36],329 µg/mL
